# Values joined by “and” are separate entries in the source; they are usually repeats but may differ in a detail not shown here. Equal entries are not always repeated. “Also recorded” adds a separate entry of the source.
# Tests used:
# [1] = system: A549 cells; test: CellTiter-Glo cell viability assay (cytotoxicity), A549; format: cell-based, human; settings: Homo sapiens, A549; 48 h, mean ± SEM
# Method: (§1) The human lung adenocarcinoma cell line A549 was cultured in DMEM medium supplemented with 10% fetal bovine serum (FBS), 100 U/mL penicillin and 100 μg/mL streptomycin. P-gp-expressing human colon adenocarcinoma cells HCT-15 were cultured in RPMI 1640 medium supplemented with 10% FBS, 100 U/mL penicillin and 100 μg/mL streptomycin. BCRP-expressing MCF-7/MX human breast adenocarcinoma cells were cultured in DMEM medium supplemented with 10% FBS, 100 U/mL penicillin and 100 μg/mL streptomycin. MRP1-expressing H69AR human small cell lung cancer cells were cultured in RPMI 1640 medium (ATCC modification) supplemented with 20% FBS, 100 U/mL penicillin and 100 μg/mL streptomycin. All cancer cell lines employed have been systematically characterized regarding their respective ABC transporter expression profile ([Sachs et al., 2019]).
# (§2) Cytotoxic activity of test compounds was analyzed after 48 h using the CellTiter-Glo Luminescent Cell Viability Assay published previously ([Weber et al., 2017]) in 384-well plates with the following cell densities: A549, MCF-7/MX: 2 × 10^3 cells/well; HCT-15: 3 × 10^3 cells/well; H69AR: 5 × 10^3 cells/well. Pipetting was conducted with the CyBi-Well 96-channel simultaneous pipettor (Analytik Jena AG, Jena, Germany). For generation of dose-response curves and calculation of IC50 values, the four-parameter logistic model was applied.
# [2] = target: T1, BCRP (Homo sapiens, UniProt Q9UNQ0); test: BCRP transport assay (Hoechst 33342) in MCF-7/MX cells; format: cell-based
# T1 construct: endogenous in cells; host or cells: MCF-7/MX human breast adenocarcinoma cells (mitoxantrone-selected)
# T1 sequence (Q9UNQ0 1-655): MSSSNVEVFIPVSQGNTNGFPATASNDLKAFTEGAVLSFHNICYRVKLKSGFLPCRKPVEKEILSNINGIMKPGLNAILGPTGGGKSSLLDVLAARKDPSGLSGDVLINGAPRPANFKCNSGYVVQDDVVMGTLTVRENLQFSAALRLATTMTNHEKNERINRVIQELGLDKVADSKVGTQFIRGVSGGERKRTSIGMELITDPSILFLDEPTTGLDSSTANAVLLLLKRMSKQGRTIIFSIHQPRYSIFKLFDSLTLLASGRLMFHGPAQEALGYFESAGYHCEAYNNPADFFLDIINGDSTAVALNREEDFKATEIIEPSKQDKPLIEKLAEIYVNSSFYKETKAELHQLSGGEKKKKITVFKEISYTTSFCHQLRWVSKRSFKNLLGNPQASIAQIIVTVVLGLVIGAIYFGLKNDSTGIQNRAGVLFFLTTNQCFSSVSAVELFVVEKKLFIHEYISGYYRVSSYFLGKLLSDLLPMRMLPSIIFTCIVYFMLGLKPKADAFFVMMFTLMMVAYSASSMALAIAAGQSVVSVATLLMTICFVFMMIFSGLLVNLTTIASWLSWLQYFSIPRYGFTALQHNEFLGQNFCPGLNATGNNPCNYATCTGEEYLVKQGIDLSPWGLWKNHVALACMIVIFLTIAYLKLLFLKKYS
# Method: Breast cancer resistance protein transport activity was determined in the BCRP-expressing MCF-7/MX cell line. Hoechst 33342 was applied as transporter substrate and 1 μM Ko143 as positive control or 0.5% DMSO as negative control and the assay was performed according to the P-gp assay. Fluorescence was measured at an excitation wavelength of 355 nm and emission wavelength of 460 nm. The transport activity of BCRP was analyzed by determining the plateau of the fluorescence-time curve by using non-linear regression (one-phase exponential fit). Normalization of the data to Ko143 (100% inhibition) and DMSO (0% inhibition) was performed.
# [3] = system: MCF-7/MX cells; test: CellTiter-Glo cell viability assay (cytotoxicity), MCF-7/MX; format: cell-based; settings: Homo sapiens, MCF7/MX; 48 h, BCRP-expressing, mean ± SEM
# Method: as §1, §2
# [4] = target: T2, Pdr5 (Saccharomyces cerevisiae, UniProt P33302); test: Pdr5 ATPase assay (oligomycin-sensitive) in plasma membrane preparations; format: biochemical; settings: highest concentrations (10 mM), in comparison to Pdr5 WT in the absence of any compound
# T2 construct: effect on (A) the transport activity of Pdr5 WT and (B) their effect on the ATPase activity; made in house; host or cells: S. cerevisiae YRE1001 (pdr1-3 background), isolated plasma membranes
# Method: (§3) Saccharomyces cerevisiae cells expressing Pdr5 WT or the E1036Q (EQ) mutant were cultured to an OD600 of 1.5 in YPD-media at 25°C. The nitrogen source was replenished by addition of a 10th volume of 5x YP (50 g/l yeast extract, 100 g/l peptone). The cells were grown to an OD of 3.5 and harvested (5000 ×g at 4°C for 15 min). The isolation of Pdr5 containing PMs was performed as described ([Kolaczkowski et al., 1996]; [Ernst et al., 2008]).
# Oligomycin (OM)-sensitive ATPase activity was measured from 0.8 μg PM containing Pdr5 incubated with 2 mM ATP, 5 mM MgCl2 in 270 mM TRIS-glycine buffer (pH 9.5) and 2.5 μl of the test compounds or DMSO as a control in a total volume of 100 μl. To reduce the background activities, 0.2 mM ammonium molybdate, 10 mM NaN3 and 50 mM KNO3, respectively, were added ([Dufour et al., 1988]; [Goffeau and Dufour, 1988]). In a second assay, OM (20 μg/ml) was added to an otherwise identical setup. After incubation at 30°C for 20 min, the reaction was stopped by adding 25 μl of the reaction to 175 μl 40 mM H2SO4. The amount of released inorganic phosphate was determined by a colometric assay in 96-well plates ([Goffeau and Dufour, 1988]; [Decottignies et al., 1994]; [Wada et al., 2002]). The difference of both assays ( ± OM) corresponds to the specific ATPase activity of Pdr5 ([Ernst et al., 2008]).
# [5] = system: HCT-15 cells; test: CellTiter-Glo cell viability assay (cytotoxicity), HCT-15; format: cell-based; settings: Homo sapiens, 48 h, P-gp expressing, mean ± SEM
# Method: as §1, §2
# [6] = system: H69AR cells; test: CellTiter-Glo cell viability assay (cytotoxicity), H69AR; format: cell-based; settings: Homo sapiens, 48 h, MRP1-expressing, mean ± SEM
# Method: as §1, §2
# [7] = target: T3, P-gp (Homo sapiens, UniProt P08183); test: P-gp transport assay (calcein-AM) in HCT-15 cells; format: cell-based
# T3 construct: endogenous in cells; host or cells: HCT-15 human colon adenocarcinoma cells
# Method: The transport of calcein-AM by P-gp and its modulation by test compounds was analyzed in the P-gp-expressing HCT-15 cell line. 5 × 10^4 cells were seeded in black 96-well plates and incubated at 37°C and 5% CO2 for 24 h. The culture medium was removed and replaced by Hank’s balanced salt solution supplemented with 10 mM HEPES. Test compounds, 2.5 μM PSC833 (positive control) or 0.5% DMSO (negative control) were added in triplicates and incubated for 30 min at 37°C and 5% CO2. The substrate calcein-AM was added (final concentration 0.5 μM) and the fluorescence (excitation 485 nm, emission 520 nm) was measured over 3 h with the Infinite m1000 pro microplate reader (Tecan Group AG, Männedorf, Switzerland) at 37°C. The transport activity of P-gp was analyzed by determining the slope of the linear part of the fluorescence-time curve (0–30 min) using linear regression. Normalization of the data to PSC833 (100% inhibition) and DMSO (0% inhibition) was performed.
# [8] = target: T2, Pdr5; test: Pdr5 transport assay (R6G) in plasma membrane preparations; format: biochemical; parameters: R6G transport activity of Pdr5 WT inhibited to (initial screen): dose or concentration left out as unconfirmed; settings: for R6G transport activity of Pdr5 WT inhibited to (initial screen): relative to Pdr5 WT without compound
# Method: as §3
# Active transport of R6G was measured according to the protocol developed by [Kolaczkowski et al. (1996)], using a Tecan Infinite 200 pro reader (Tecan Group AG, Männedorf, Switzerland). 6 μg of the isolated PM containing Pdr5 were resuspended in 200 μl of the transport buffer (50 mM HEPES, pH 7.0, 5 mM MgCl2, 10 mM NaN3, and 150 nM R6G) and incubated in a black 96-well plate at 30°C. 5 μl of the test compound were added at the indicated concentrations. Active transport was initiated by the addition of 10 μl 200 mM ATP and fluorescence intensity was recorded in 15 s-intervals for 20 min (excitation wavelength at 524 nm, emission wavelength at 558 nm, number of flashes 30, integration time 2000 μs). IC50 determination was performed with a serial dilution of the test compounds.
# [9] = system: P-gp expressing HCT-15 cells; test: Sensitization of HCT-15 cells to doxorubicin (co-treatment, cell viability); format: cell-based, human
# Method: as §2
# (§4) The ability of identified inhibitors of P-gp and BCRP to sensitize HCT-15 or MCF-7/MX cells to chemotherapy was analyzed by co-treatment with test compounds and doxorubicin or mitoxantrone, respectively. Cells were incubated with a serial dilution of the chemotherapeutic drug alone or in combination with fixed concentrations of the test compounds or positive controls (2.5 μM PSC833 and 1 μM Ko143, respectively). Fold change of drug IC50 was calculated with the formula IC50 (drug alone)/IC50 (drug with modulator).
# [10] = system: BCRP-expressing MCF-7/MX cells; test: Sensitization of MCF-7/MX cells to mitoxantrone (co-treatment, cell viability); format: cell-based, human
# Method: as §2, §4
# [11] = human, P-gp-expressing HCT-15 cells, probe calcein-AM (0.5 μM), normalized to 2.5 μM PSC833 (100%) and DMSO (0%), read-out: Relative inhibition of P-gp
# T3 sequence (P08183 whole entry): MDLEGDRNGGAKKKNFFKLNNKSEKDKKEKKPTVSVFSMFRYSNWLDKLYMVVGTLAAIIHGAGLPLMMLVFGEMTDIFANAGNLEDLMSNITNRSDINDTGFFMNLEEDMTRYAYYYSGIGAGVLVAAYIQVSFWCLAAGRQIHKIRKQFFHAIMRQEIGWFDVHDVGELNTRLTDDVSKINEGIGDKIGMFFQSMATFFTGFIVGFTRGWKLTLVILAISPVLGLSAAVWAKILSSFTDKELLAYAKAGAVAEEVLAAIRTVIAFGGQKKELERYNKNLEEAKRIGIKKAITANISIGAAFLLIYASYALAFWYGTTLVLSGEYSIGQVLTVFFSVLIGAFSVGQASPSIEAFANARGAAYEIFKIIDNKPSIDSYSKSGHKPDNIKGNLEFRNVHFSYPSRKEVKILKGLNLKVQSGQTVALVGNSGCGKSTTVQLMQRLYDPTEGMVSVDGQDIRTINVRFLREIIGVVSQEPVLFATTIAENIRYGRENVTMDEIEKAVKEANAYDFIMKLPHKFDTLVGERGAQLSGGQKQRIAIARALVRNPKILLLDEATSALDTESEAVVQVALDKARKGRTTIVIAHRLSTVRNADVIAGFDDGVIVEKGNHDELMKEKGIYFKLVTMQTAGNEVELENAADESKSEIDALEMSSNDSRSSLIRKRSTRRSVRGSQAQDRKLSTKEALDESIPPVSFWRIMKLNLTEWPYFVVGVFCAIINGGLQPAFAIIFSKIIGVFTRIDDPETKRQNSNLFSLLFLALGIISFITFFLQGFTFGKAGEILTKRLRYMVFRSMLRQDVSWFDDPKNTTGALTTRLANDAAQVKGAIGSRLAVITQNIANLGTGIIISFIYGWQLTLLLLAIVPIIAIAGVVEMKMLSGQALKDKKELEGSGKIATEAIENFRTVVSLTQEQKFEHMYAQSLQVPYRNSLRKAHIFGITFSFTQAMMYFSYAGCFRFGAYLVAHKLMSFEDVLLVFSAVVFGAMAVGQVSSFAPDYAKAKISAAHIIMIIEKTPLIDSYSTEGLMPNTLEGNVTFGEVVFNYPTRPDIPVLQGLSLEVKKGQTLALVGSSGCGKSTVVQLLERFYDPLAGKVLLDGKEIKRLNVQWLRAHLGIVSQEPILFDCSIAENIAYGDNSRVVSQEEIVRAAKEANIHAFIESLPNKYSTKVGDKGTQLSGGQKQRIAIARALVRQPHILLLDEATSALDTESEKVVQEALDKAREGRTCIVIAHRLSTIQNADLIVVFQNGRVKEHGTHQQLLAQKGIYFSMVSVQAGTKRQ
# T2 sequence (P33302 whole entry): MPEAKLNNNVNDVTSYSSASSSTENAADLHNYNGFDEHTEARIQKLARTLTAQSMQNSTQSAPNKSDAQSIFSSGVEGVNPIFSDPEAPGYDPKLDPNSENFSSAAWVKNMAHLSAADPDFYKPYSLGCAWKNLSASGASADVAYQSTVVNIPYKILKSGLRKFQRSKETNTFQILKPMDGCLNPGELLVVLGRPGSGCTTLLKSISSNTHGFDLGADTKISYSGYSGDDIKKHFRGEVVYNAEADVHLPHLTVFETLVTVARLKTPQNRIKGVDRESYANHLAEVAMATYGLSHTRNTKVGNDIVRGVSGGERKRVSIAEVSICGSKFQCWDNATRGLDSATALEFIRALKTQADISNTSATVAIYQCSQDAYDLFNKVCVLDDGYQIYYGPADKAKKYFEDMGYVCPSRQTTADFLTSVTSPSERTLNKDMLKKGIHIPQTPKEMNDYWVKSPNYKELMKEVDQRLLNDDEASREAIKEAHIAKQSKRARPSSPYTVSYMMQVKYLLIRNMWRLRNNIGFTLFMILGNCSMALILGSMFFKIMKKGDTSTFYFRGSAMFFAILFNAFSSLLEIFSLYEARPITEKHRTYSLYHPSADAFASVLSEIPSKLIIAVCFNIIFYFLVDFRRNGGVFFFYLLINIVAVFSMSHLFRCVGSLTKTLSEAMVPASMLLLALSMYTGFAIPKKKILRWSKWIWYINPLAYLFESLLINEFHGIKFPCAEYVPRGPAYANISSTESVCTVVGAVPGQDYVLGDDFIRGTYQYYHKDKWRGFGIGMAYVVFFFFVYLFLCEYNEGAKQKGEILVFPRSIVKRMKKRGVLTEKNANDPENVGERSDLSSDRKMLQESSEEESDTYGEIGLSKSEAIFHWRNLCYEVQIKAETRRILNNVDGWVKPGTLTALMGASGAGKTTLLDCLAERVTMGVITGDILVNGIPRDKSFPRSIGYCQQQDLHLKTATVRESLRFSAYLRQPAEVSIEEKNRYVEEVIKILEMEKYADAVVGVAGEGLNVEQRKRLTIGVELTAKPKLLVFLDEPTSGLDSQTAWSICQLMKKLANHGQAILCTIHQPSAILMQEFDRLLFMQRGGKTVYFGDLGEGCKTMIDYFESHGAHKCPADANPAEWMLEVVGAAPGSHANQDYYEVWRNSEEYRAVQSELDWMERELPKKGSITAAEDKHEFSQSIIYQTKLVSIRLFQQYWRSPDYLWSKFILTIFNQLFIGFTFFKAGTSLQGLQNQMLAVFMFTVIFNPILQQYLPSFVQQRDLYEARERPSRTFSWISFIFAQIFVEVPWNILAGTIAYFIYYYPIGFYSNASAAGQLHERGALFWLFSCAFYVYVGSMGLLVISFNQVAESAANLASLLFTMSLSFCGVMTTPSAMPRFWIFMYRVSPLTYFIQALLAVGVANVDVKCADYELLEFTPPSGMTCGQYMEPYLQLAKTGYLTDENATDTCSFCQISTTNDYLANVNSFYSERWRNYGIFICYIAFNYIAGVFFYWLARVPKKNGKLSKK
Compound,IC50 [1],Inhibition of BCRP (in words) [2],IC50 [3],ATPase activity of Pdr5 WT inhibited to (initial screen) [4],IC50 [5],IC50 [6],also measured
COc1cc(O)c2c(c1)C[C@@H](CCO)OC2=O [(S)-19a],> 100 µM,completely abolished inhibitory ability,89.8 ± 4.9 µM,nearly no effect; also recorded: no inhibition of the ATPase activity was observed,> 100 µM,> 100 µM,–
COc1cc(O)c2c(c1)C[C@H](CCO)OC2=O [(R)-19a],> 100 µM,completely abolished inhibitory ability,> 100 µM,nearly no effect; also recorded: no inhibition of the ATPase activity was observed,> 100 µM,> 100 µM,–
COc1cc(O)c2c(c1)C[C@H](CCO[Si](C)(C)C(C)(C)C)OC2=O [(R)-19],47.5 ± 3.2 µM,–,28.1 ± 0.7 µM,–,57.1 ± 7.5 µM,> 100 µM,"inhibition at 20 μM [7, 11]: > 20%; IC50 [8]: 26 ± 3.5 µM; R6G transport activity of Pdr5 WT inhibited to (initial screen) [8]: inhibit the transport of R6G completely; also recorded: inhibit the transport activity of Pdr5 WT completely"
COc1cc(O)c2c(c1)C[C@@H](CCO[Si](C)(C)C(C)(C)C)OC2=O [(S)-19],42 ± 3.9 µM,–,33.5 ± 7.5 µM,–,> 100 µM,86.8 ± 9.2 µM,"inhibition at 10 μM ([7]; human, P-gp-expressing HCT-15 cells, probe calcein-AM (0.5 μM), 10 μM, normalized to 2.5 μM PSC833 (100%) and DMSO (0%), read-out: Relative inhibition of P-gp): 37.1 ± 2.9%; inhibition at 20 μM [7, 11]: > 20%; IC50 [8]: 5.3 ± 0.6 µM; R6G transport activity of Pdr5 WT inhibited to (initial screen) [8]: inhibit the transport of R6G completely; also recorded: inhibit the transport activity of Pdr5 WT completely"
"COc1cc(O)c2c(c1)C[C@@H](C)OC2=O [6-Methoxymellein (3), 6-methoxymellein]",> 100 µM,no inhibitory activity could be observed,> 100 µM,–,> 100 µM,> 100 µM,ATPase activity of Pdr5 WT inhibited to (initial screen) ([4]; listed as 3): nearly no effect; ATPase activity of Pdr5 WT inhibited to (initial screen) ([4]; listed as 6-methoxymellein (3)): no inhibitory effect; Inhibition of P-gp (in words) [7]: did not differ significantly from those of derivative 14; R6G transport activity of Pdr5 WT inhibited to (initial screen) ([8]; listed as 3): no effect; R6G transport activity of Pdr5 WT inhibited to (initial screen) ([8]; listed as 6-methoxymellein (3)): did not interfere with Pdr5-mediated R6G transport
"COc1cccc2c1C(=O)c1c(O)c3c(c(O)c1C2=O)C[C@@](O)(C(=O)CO)C[C@@H]3O[C@H]1C[C@H](N)[C@H](O)[C@H](C)O1 [Doxorubicin, doxorubicin, reference compound]",–,–,–,–,–,–,"IC50 ([9]; Homo sapiens, HCT-15, doxorubicin alone, 48 h): 8.5 ± 0.7 µM; Fold change of doxorubicin IC50 ([9]; doxorubicin alone (reference)): 1.00"
COc1cc2c(c(OC)c1)C(=O)OCC2 [Compound 14a],> 100 µM,did not inhibit BCRP,> 100 µM,–,> 100 µM,> 100 µM,"Relative inhibition of P-gp, span over the tested concentrations ([7]; different concentrations, normalized to PSC833): up to 10%"
COc1cc(O)c2c(=O)oc3ccccc3c2c1 [Compound 21],> 50 µM,–,> 50 µM,50% and 54%,> 50 µM,> 50 µM,Relative inhibition rate of P-gp ([7]; highest concentration used): 20.0 ± 1.2%
"O=C1c2c(O)ccc(O)c2C(=O)c2c(NCCNCCO)ccc(NCCNCCO)c21 [Mitoxantrone, mitoxantrone, reference compound]",–,–,–,–,–,–,"IC50 ([10]; Homo sapiens, MCF7/MX, mitoxantrone alone, 48 h): 19.6 ± 2.4 µM; Fold change of mitoxantrone IC50 ([10]; mitoxantrone alone (reference)): 1.00"

# — publication PMC6476959, “Novel 3,4-Dihydroisocoumarins Inhibit Human P-gp and BCRP in Multidrug Resistant Tumors and Demonstrate Substrate Inhibition of Yeast Pdr5” (Frontiers in Pharmacology, 2019)
